Laboratory results: patent US9464106B2, “Oligonucleotides useful for detecting and analyzing nucleic acids of interest” (Exiqon A/S, priority 2002, dated 2016)
l = locked nucleic acid (LNA); [5mC] = 5-methylcytosine; d = 2'-deoxy (DNA)

How the values were obtained:
[1] = test system: 3′-ACGACCAC-5′ / 3′-ACGGCCAC-5′; experiment: Tm of LNA:DNA and DNA:DNA 8-mer duplexes, perfect match and single mismatch; type: binding; conditions: for ΔTm: perfect match minus single mismatch; for Tm of LNA:DNA Duplexes, Perfect match: target 3′-ACGACCAC-5′; for Tm of LNA:DNA Duplexes, Single mismatch: target 3′-ACGGCCAC-5′
Description: It is often difficult to design probes and primers with the same range of melting temperature due to the variance in A/T and G/C content of the probing sites. Highly A/T rich regions typically give lower Tm values. Furthermore, if single mismatches are to be resolved, G/T mismatches are known to contribute little to ΔTm. As discussed above, the use of LNA is a desirable way to solve problems related to multiplex use of primers and probes. LNA offers the possibility to adjust Tm and increase the ΔTm at the same time. LNA increases Tm with 4-8° C./substitution and increases ΔTm in many cases (Table 9).

[2] = test system: C. elegans genes relevant for general stress response and metabolism of toxic compounds; experiment: Expression profiling on C. elegans LNA tox oligoarray, beta-naphthoflavone and primaquine; type: in vivo, Caenorhabditis elegans; conditions: cRNA target; 24 hours
Description: For all cultures the sample is divided into two, and one half of the sample is used as the control, the other as the treated sample. Worm samples are harvested and sucrose cleaned by standard methods. For heat shock treatment: the heat shock sample is added to S-media preheated to 33° C. in a 1 L flask suspended in a water bath at 33° C., the other sample is added to a 1 L flask with S-media at 25° C. Both samples are shaken at approximately 100 rpm. for an hour. For β-naphthoflavone and primaquine treatment: 0.5 mL of 5 mg/mL β-naphthoflavone in DMSO or 0.5 mL of 20 mg/mL primaquine in DMSO were added to each 500 mL volume of S-media culture after 28 hours of growth from L1. At the same time 0.5 mL of DMSO was added to the control. Incubation was for 24 hours. Samples are then harvested by centrifugation at 3000×g suspended in RNALater™ (Ambion) and immediately frozen in liquid nitrogen.
First and second strand cDNA syntheses were made using the MessageAmp™ aRNA Kit (Ambion) according to suppliers' instructions. Five microgram of C. elegans total RNA was used as template for cDNA syntheses. Syntheses of fluorescent cRNA were made according to the MessageAmp™ aRNA Kit (Ambion) protocol with minor modifications. Cy3™-UTP or Cy5™-UTP (6 μl of a 5 mM solution Amersham Biosciences, USA) replaced biotin-CTP. The final concentration of ATP, CTP, and GTP was 7.5 mM whereas the concentration of UTP was reduced to 4.9 mM.
The arrays were hybridized overnight using the following protocol. The Cy3™ and Cy5™-labelled cDNA or cRNA samples were combined in one tube followed by addition of 3 μL 20×SSC (3×SSC final), 0.5 μL 1 M HEPES, pH 7.0 (25 mM final), 25 μg yeast tRNA (1.25 μg/μL final), 0.6 μL 10% SDS (0.3% final), and DEPC-treated water to 20 μL final volume. The labelled cDNA target sample was filtered in a Millipore 0.22 micron spin column according to the manufacturer's instructions (Millipore, USA), and the probe was denatured by incubating the reaction at 100° C. for 2 min. The sample was cooled at 20-25° C. for 5 min. by spinning at max speed in a microcentrifuge. A LifterSlip (Erie Scientific Company, USA) was carefully placed on top of the microarray spotted on Immobilizer™ MicroArray Slide and the hybridization mixture was applied to the array from the side. An aliquot of 30 μL of 3×SSC was added to both ends of the hybridization chamber, and the Immobilizer™ MicroArray Slide was placed in the hybridization chamber. The chamber was sealed watertight and incubated at 65° C. for 16-18 hours submerged in a water bath. After hybridisation, the slide was removed carefully from the hybridization chamber and washed using the following protocol. The Lifterslip coverslip was washed off in 2×SSC, pH 7.0 containing 0.1% SDS at room temperature for 1 min., followed by washing of the microarrays subsequently in 1.0×SSC, pH 7.0 at room temperature for 1 min, and then in 0.2×SSC, pH 7.0 at room temperature for 1 min. Finally the slides were washed for 5 seconds in 0.05×SSC, pH 7.0. The slides were then dried by centrifugation in a swinging bucket rotor at approximately 200 G for 2 min. The slide is now ready for scanning.
Following washing and drying, the slides were scanned using a ScanArray 4000XL scanner (Perkin-Elmer Life Sciences, USA), and the array data were processed using the GenePix™ Pro 4.0 software package (Axon, USA). The data in each image was normalized so that the ratio of means of all of the features is equal to 1.

human satellite-2 repeat = experiment: FISH on metaphase chromosomes with satellite-2 LNA/DNA mixmers; type: binding; conditions: for FISH signals on chromosomes: 6.4 pmoles Cy3 labeled probe, 30 minutes at 37° C., simultaneous denaturation at 75° C. for 5 minutes; for FISH signals without a denaturation step: overnight hybridization
Description: Chromosome preparations were made by standard methods from peripheral lymphocyte cultures of normal males. Slides were prepared 1-4 days prior to an experiment and treated with RNAse (10 μg/μl) at 37° C. for one hour before hybridization. The 23 bp human satellite-2 repeat sequence, [NT], was used to prepare the […] different content and sequence order of LNA modifications (Table 19). All […] labeled in the 5' end with either Cy3 or biotin. Biotin amidite was purchased from Applied Biosystems and Cy3 amidite was purchased from Amersham Bioscience. […] FISH was carried out as described by […], Guven […], Turner Z. (1998) Not para-, not peri-, but centric inversion of chromosome 12. […] (1); with the following modifications including: […] In addition the effect of denaturation was also tested. Two alternative hybridization mixtures were used: 50% formamide/2×SSC (pH 7.0)/10% dextran sulphate or 2×SSC (pH 7.0)/10% dextran sulphate. Hybridization times included 30 min, 1 hr, 2 hrs, 3 hrs and overnight. Hybridization temperatures included: 37° C., 55° C., 60° C. and 72° C. Post washing was either as for standard FISH (1), or with 50% formamide/2×SSC at 60° C., or without formamide. Hybridization signals with biotin labeled LNA substituted oligonucleotide probes were visualized indirectly using two layers of fluorescein-labeled avidin (Vector Labs) linked by a biotinylated anti-avidin molecule, which amplified the signal 8-64 times. The hybridization of Cy3 labeled molecules however, was visualized directly after a short washing procedure. […] The whole procedure was carried out in the dark. The signals were visualized using a Leica DMRB epifluorescence microscope equipped with a SenSys charge-coupled device camera (Photometrics, Tucson, Ariz.), and IPLAB Spectrum Quips FISH software (Applied Imaging international Ltd, Newcastle, UK) within two days after hybridization.

[3] = test system: DNA oligonucleotides (HNFas128A-2, Gluc53as-A); experiment: Mismatch discrimination of chimeric LNA-DNA 12-mers containing LNA-A or LNA-D; type: binding
[4] = test system: splice variant #1 and #2 transcripts spiked into C. elegans total RNA; experiment: Splice variant ratio detection with merged LNA block capture probes (Example 9); type: binding; conditions: signal ratio KU007/KU008, Cy5, normalized

Molecule: 5′-TGCTGGTG-3′ [DNA 8-mer, reference compound]
- ΔTm [1]: 10 °C
- Tm of LNA:DNA Duplexes, Perfect match [1]: 35 °C
- Tm of LNA:DNA Duplexes, Single mismatch [1]: 25 °C

Molecule: 5′-TGCTGGTG-3′ [LNA 8-mer]
- ΔTm [1]: 26 °C
- Tm of LNA:DNA Duplexes, Perfect match [1]: 71 °C
- Tm of LNA:DNA Duplexes, Single mismatch [1]: 45 °C

Molecule: COc1cc(NC(C)CCCN)c2ncccc2c1 (stereo not drawn) [Primaquine, primaquine]
- Log2 transformed fold of change, ABC_F57C12.4 [2]: −1.11
- Log2 transformed fold of change, CYP_F14F7.2 [2]: −1.24
- Log2 transformed fold of change, DC_W05G11.3 [2]: 1.16
- Log2 transformed fold of change, ER_26S [2]: −1.09
- Log2 transformed fold of change, PPGB_F13D12.6 [2]: 1.08
- Log2 transformed fold of change, RPL_K11H12.2 [2]: 1.15

Molecule: O=c1cc(-c2ccccc2)oc2ccc3ccccc3c12 [beta-naphthoflavone, β-naphthoflavone]
- Log2 transformed fold of change, ABC_C34G6.4 [2]: 1.01
- Log2 transformed fold of change, CYP_C03G6.15 [2]: 2.35
- Log2 transformed fold of change, CYP_C06B3.3 [2]: 2.47
- Log2 transformed fold of change, CYP_C49G7.8 [2]: 2.40
- Log2 transformed fold of change, CYP_F14F7.2 [2]: −1.03
- Log2 transformed fold of change, CYP_K07C6.5 [2]: 2.68
- Log2 transformed fold of change, CYP_K09D9.2 [2]: 2.14
- Log2 transformed fold of change, ER_26S [2]: −1.01
- Log2 transformed fold of change, HSP_C47E8.5 [2]: 1.17
- Log2 transformed fold of change, HSP_F26D10.3 [2]: 1.05
- Log2 transformed fold of change, HSP_F43D9.4 [2]: 1.27
- Log2 transformed fold of change, NAP_D2096.8 [2]: 1.14
- Log2 transformed fold of change, PPGB_F13D12.6 [2]: 1.21
- Log2 transformed fold of change, RAD_Y116A8C.133 [2]: 1.13
- Log2 transformed fold of change, RPL_K11H12.2 [2]: 1.42
- Log2 transformed fold of change, Ubi_F25B5.4 [2]: 1.37

Molecule: ATtCcAtTcGaTtCcAtTcGaTc (as printed in the source, key not given here) [LNA-2]
- FISH signals on chromosomes (human satellite-2 repeat): signals on chromosomes 1, 16, 9 and 15
- FISH signals without a denaturation step (human satellite-2 repeat): giving the best signals

Molecule: aTTCcattcgATTccattcGATc (ATTCCATTCGATTCCATTCGATC; sugars from the 5' end dlllddddddlllddddddllld, backbone and methylation of C not given here; 5' end labelled with Cy3 or biotin) [LNA Blocks]
- FISH signals on chromosomes (human satellite-2 repeat): smaller signals on chromosome 1

Molecule: aTtcCatTcgAtTccAttCgaTc (ATTCCATTCGATTCCATTCGATC; sugars from the 5' end dlddlddlddldlddlddlddld, backbone and methylation of C not given here; 5' end labelled with Cy3 or biotin) [LNA-3]
- FISH signals on chromosomes (human satellite-2 repeat): bright signals on chromosomes 1, 16 and 9

Molecule: aTtccatTcgaTtccAttcgaTc (ATTCCATTCGATTCCATTCGATC; sugars from the 5' end dldddddldddldddldddddld, backbone and methylation of C not given here; 5' end labelled with Cy3 or biotin) [Dispersed LNA]
- FISH signals on chromosomes (human satellite-2 repeat): signals on chromosomes 1 and 16 only

Molecule: attccattcgattccattcgatc (ATTCCATTCGATTCCATTCGATC; chemistry not given here) [DNA oligo, reference compound]
- FISH signals on chromosomes (human satellite-2 repeat): no signals on any of the chromosomes
- FISH signals without a denaturation step (human satellite-2 repeat): no signals were obtained

Molecule: cAmCtgGAmCtctt (CACTGGACTCTT; chemistry not given here)
- ΔTm between singly mismatched and perfect duplexes ([3]; Gluc53as-A): −10.9 °C
- Tm with aagaggccagtg (singly mismatched) ([3]; Gluc53as-A, duplexes 2 μM): 50.6 °C
- Tm with aagagtccagtg (perfect) ([3]; Gluc53as-A, duplexes 2 μM): 61.5 °C

Molecule: caacactgcccagaggttcaatcGATGTgtgataggatcagtgttcaggg (CAACACTGCCCAGAGGTTCAATCGATGTGTGATAGGATCAGTGTTCAGGG; sugars from the 5' end d23 l5 d22, backbone not given here; further chemistry not fully specified) [gene78.m01INS4_50_block]
- Observed ratio (log2) with merged LNA block capture probes [4]: −2.39

Molecule: caacactgcccagaggttcaatcGATmCmCgatgatcctaatgaaggcgccc (CAACACTGCCCAGAGGTTCAATCGATCCGATGATCCTAATGAAGGCGCCC; sugars from the 5' end d23 l5 d22, [5mC] at 27, 28, backbone not given here; further chemistry not fully specified) [gene78.m01INS3_50_block]
- Observed ratio (log2) with merged LNA block capture probes [4]: 2.93

Molecule: gaaggcgaaggagactgctAATATcgataaatatgtgaaggaaatgcctg (as printed in the source, key not given here) [gene78.mINS403_50_block]
- Observed ratio (log2) with merged LNA block capture probes [4]: −0.86

Molecule: gene78.m0103: merged probe corresponding to the exon 01-exon 03 border (DNA CACAACACTGCCCAGAGGTTCAATCGATAAATATGTGAAGGAAATGCCTG; listed as DNA, chemistry not fully specified)
- Observed ratio (log2) with merged LNA block capture probes [4]: −0.24

Molecule: tGtggGATGttg (TGTGGGATGTTG; chemistry not given here)
- ΔTm between singly mismatched and perfect duplexes ([3]; HNFas128A-2): −15.1 °C
- Tm with caacaacccaca (singly mismatched) ([3]; HNFas128A-2, duplexes 2 μM): 45.9 °C
- Tm with caacatcccaca (perfect) ([3]; HNFas128A-2, duplexes 2 μM): 61.0 °C
